Converted amounts (≈) assume the structure as drawn.
Experiments:
[1] = Metabolic stability in mouse liver microsomes assessed as residual rate; format: ADME, Microsome
[2] = Effective permeability of compound by PAMPA assay; format: ADME; conditions: read-out: Peff
Neisseria gonorrhoeae [3] = assay: Antibacterial activity against resistant Neisseria gonorrhoeae assessed inhibition of bacterial growth; format: functional
[4] = Aqueous solubility of compound in neutral JP2 solution; format: physicochemical; conditions: JP2 solution; read-out: solubility
Neisseria gonorrhoeae [5] = assay: Antibacterial activity against Neisseria gonorrhoeae clinical isolate assessed inhibition of bacterial growth; format: functional
[6] = Aqueous solubility of compound in acidic JP1 solution; format: physicochemical; conditions: JP1 solution; read-out: solubility
Staphylococcus aureus = assay: Antibacterial activity against Staphylococcus aureus assessed inhibition of bacterial growth; format: functional
Neisseria gonorrhoeae [7] = assay: Antibacterial activity against azithromycin resistant Neisseria gonorrhoeae assessed inhibition of bacterial growth; format: functional
Neisseria gonorrhoeae [8] = assay: Antibacterial activity against ceftriaxone intermediate resistant Neisseria gonorrhoeae assessed inhibition of bacterial growth; format: functional

Question: Which Stability [1] does the source give for `C#CCONC(=O)O[C@H]1[C@@H](O)[C@H](Oc2ccc3c(O)c(NC(=O)c4ccc(O)c(CC=C(C)C)c4)c(=O)oc3c2C)OC(C)(C)[C@@H]1OC` here?
Answer: 47.2%

Question: And the Papp [2]?
Answer: 1.14 ×10⁻⁶ cm/s

Question: And the MIC50 (Neisseria gonorrhoeae [3])?
Answer: 0.25 µg/mL (≈ 0.375 µM)

Question: What about the MIC90 (Neisseria gonorrhoeae [3]) of the same molecule?
Answer: 0.5 µg/mL (≈ 0.75 µM)

Question: And the solubility [4]?
Answer: 69.3 µM (≈ 46.2 µg/mL)

Question: What about the MIC90 (Neisseria gonorrhoeae [5]) of the same molecule?
Answer: 0.125 µg/mL (≈ 0.187 µM)

Question: And the solubility [6]?
Answer: < 1 µM

Question: And the MIC50 (Staphylococcus aureus)?
Answer: 0.063 µg/mL (≈ 0.0945 µM)

Question: What about the MIC90 (Staphylococcus aureus) of the same molecule?
Answer: 0.063 µg/mL (≈ 0.0945 µM)

Question: Which results are given for `CO[C@@H]1[C@@H](OC(=O)c2ccc(C)[nH]2)[C@@H](O)[C@H](Oc2ccc3c(O)c(NC(=O)c4cn(C)cn4)c(=O)oc3c2C)OC1(C)C`?
Answer: Stability [1]: 119%; Papp [2]: 1.61 ×10⁻⁶ cm/s; MIC50 (Neisseria gonorrhoeae [3]): 0.25 µg/mL (≈ 0.419 µM); MIC90 (Neisseria gonorrhoeae [3]): 0.5 µg/mL (≈ 0.838 µM); solubility [4]: > 80 µM; MIC90 (Neisseria gonorrhoeae [5]): 0.25 µg/mL (≈ 0.419 µM); solubility [6]: > 80 µM; MIC50 (Staphylococcus aureus): 0.5 µg/mL (≈ 0.838 µM); MIC90 (Staphylococcus aureus): 0.5 µg/mL (≈ 0.838 µM)

Question: What does the source list for `C=Cc1cc(C(=O)Nc2c(O)c3ccc(O[C@@H]4OC(C)(C)[C@H](OC)[C@@H](OC(=O)c5ccc(C)[nH]5)[C@H]4O)c(C)c3oc2=O)ccc1N`?
Answer: Stability [1]: 104%; Papp [2]: 8.06 ×10⁻⁶ cm/s; MIC50 (Neisseria gonorrhoeae [3]): 0.25 µg/mL (≈ 0.395 µM); MIC90 (Neisseria gonorrhoeae [3]): 0.5 µg/mL (≈ 0.789 µM); solubility [4]: 65.8 µM (≈ 41.7 µg/mL); MIC90 (Neisseria gonorrhoeae [5]): 0.25 µg/mL (≈ 0.395 µM); solubility [6]: 1.79 µM (≈ 1.13 µg/mL); MIC50 (Staphylococcus aureus): 0.25 µg/mL (≈ 0.395 µM); MIC90 (Staphylococcus aureus): 0.5 µg/mL (≈ 0.789 µM)

Question: What does the source list for `CO[C@@H]1[C@@H](OC(=O)c2ccc(C)[nH]2)[C@@H](O)[C@H](Oc2ccc3c(O)c(NC(=O)c4ccc(O)c(CC=C(C)C)c4)c(=O)oc3c2C)OC1(C)C`?
Answer: Stability [1]: 92.7%; MIC (Neisseria gonorrhoeae [7]): 0.008 µg/mL (≈ 0.0118 µM); Papp [2]: 10.3 ×10⁻⁶ cm/s; MIC50 (Neisseria gonorrhoeae [3]): 0.063 µg/mL (≈ 0.0931 µM); MIC90 (Neisseria gonorrhoeae [3]): 0.125 µg/mL (≈ 0.185 µM); solubility [4]: 69.2 µM (≈ 46.8 µg/mL); MIC90 (Neisseria gonorrhoeae [5]): 0.063 µg/mL (≈ 0.0931 µM); solubility [6]: < 1 µM; MIC50 (Staphylococcus aureus): 0.008 µg/mL (≈ 0.0118 µM); MIC90 (Staphylococcus aureus): 0.08 µg/mL (≈ 0.118 µM); MIC (Neisseria gonorrhoeae [8]): 0.063 µg/mL (≈ 0.0931 µM)

Question: Which results are given for `CO[C@@H]1[C@@H](OC(=O)c2ccc(C)[nH]2)[C@@H](O)[C@H](Oc2ccc3c(O)c(NC(=O)c4ccc(C)c(C)c4)c(=O)oc3c2C)OC1(C)C`?
Answer: Stability [1]: 80.8%; Papp [2]: 18 ×10⁻⁶ cm/s; MIC50 (Neisseria gonorrhoeae [3]): 0.125 µg/mL (≈ 0.201 µM); MIC90 (Neisseria gonorrhoeae [3]): 0.125 µg/mL (≈ 0.201 µM); solubility [4]: 79.1 µM (≈ 49.1 µg/mL); MIC90 (Neisseria gonorrhoeae [5]): 0.25 µg/mL (≈ 0.403 µM); solubility [6]: < 1 µM; MIC50 (Staphylococcus aureus): 0.016 µg/mL (≈ 0.0258 µM); MIC90 (Staphylococcus aureus): 0.016 µg/mL (≈ 0.0258 µM)

Question: With `C[C@@H]1CN2c3c(cc4c(N5C(=O)OC[C@@H]5C)noc4c3F)CC3(C(=O)NC(=O)NC3=O)[C@H]2[C@H](C)O1` [ZOLIFLODACIN] as the molecule, how does the Stability [1] read?
Answer: 94.3%

Question: What about the Papp [2] of the same molecule?
Answer: 0.039 ×10⁻⁶ cm/s

Question: And the solubility [4]?
Answer: 66 µM (≈ 32.2 µg/mL)

Question: What about the MIC90 (Neisseria gonorrhoeae [5]) of the same molecule?
Answer: 0.063 µg/mL (≈ 0.129 µM)

Question: What about the solubility [6] of the same molecule?
Answer: 66.3 µM (≈ 32.3 µg/mL)

From ChEMBL document CHEMBL5325486, “Synthesis of novobiocin derivatives and evaluation of their antigonococcal activity and pharmacokinetics” (Bioorg Med Chem, 2023)
